# Values of other authors, collected in patent EP4578905A1, “COMPOSITION, PREPARATION METHOD THEREFOR, AND USE THEREOF” (Bloomage Biotechnology Corporation Limited, priority 2022, dated 2024).
# Where two headings read alike, the source gives them in different places.
smiles,measurement,setting,value
NCCCC(=O)O [γ-aminobutyric acid],dissociation constant pK,first pK printed,4.03
same,dissociation constant pK,second pK printed,10.56
